# Source: PubChem BioAssay (NCI)
#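 Where inhibition never reached the appropriate level, the endpoint shown equals the highest concentration tested. Otherwise, values were interpolated linearly from a five-concentration, 48-hour dose response in 96-well plates. GI50 marks 50% less growth. At the TGI there is no net growth.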
# Key:
# Test in all cases: NCI-60 cell line screen, 48 h
# OVCAR-8 ovarian = system: OVCAR-8 ovarian
# RPMI-8226 leukemia = system: RPMI-8226 leukemia
# BT-549 breast = system: BT-549 breast
# SK-MEL-2 melanoma = system: SK-MEL-2 melanoma
# SK-OV-3 ovarian = system: SK-OV-3 ovarian
# ACHN renal = system: ACHN renal
# OVCAR-5 ovarian = system: OVCAR-5 ovarian
# TK-10 renal = system: TK-10 renal
# NCI-H522 lung = system: NCI-H522 lung
# MDA-MB-435 = system: MDA-MB-435
# HCC-2998 colon = system: HCC-2998 colon
# PC-3 prostate = system: PC-3 prostate
# OVCAR-3 ovarian = system: OVCAR-3 ovarian
# MDA-MB-231 breast = system: MDA-MB-231 breast
# CAKI-1 renal = system: CAKI-1 renal
# UACC-62 melanoma = system: UACC-62 melanoma
# MCF7 breast = system: MCF7 breast
# A549 NSCLC = system: A549 NSCLC
# UACC-257 melanoma = system: UACC-257 melanoma
# HL-60(TB) leukemia = system: HL-60(TB) leukemia
# MOLT-4 leukemia = system: MOLT-4 leukemia
# SK-MEL-28 melanoma = system: SK-MEL-28 melanoma
# RXF 393 renal = system: RXF 393 renal
# HS 578T breast = system: HS 578T breast
# SW-620 colon = system: SW-620 colon
# NCI-H23 lung = system: NCI-H23 lung
# DU-145 prostate = system: DU-145 prostate
# K-562 leukemia = system: K-562 leukemia
# NCI-H460 lung = system: NCI-H460 lung
# HOP-92 NSCLC = system: HOP-92 NSCLC
# KM12 colon = system: KM12 colon
# COLO 205 colon = system: COLO 205 colon
# HOP-62 NSCLC = system: HOP-62 NSCLC
# MALME-3M melanoma = system: MALME-3M melanoma
# SNB-19 CNS = system: SNB-19 CNS
# SF-268 CNS = system: SF-268 CNS
# T-47D breast = system: T-47D breast
# OVCAR-4 ovarian = system: OVCAR-4 ovarian
# HT29 colon = system: HT29 colon
# HCT-116 colon = system: HCT-116 colon
# EKVX NSCLC = system: EKVX NSCLC
# NCI/ADR-RES ovarian = system: NCI/ADR-RES ovarian
# UO-31 renal = system: UO-31 renal
# LOX IMVI melanoma = system: LOX IMVI melanoma
# U251 CNS = system: U251 CNS
# SR leukemia = system: SR leukemia
# NCI-H226 lung = system: NCI-H226 lung
# HCT-15 colon = system: HCT-15 colon
# SNB-75 CNS = system: SNB-75 CNS
# SK-MEL-5 melanoma = system: SK-MEL-5 melanoma
# IGROV1 ovarian = system: IGROV1 ovarian
# SN12C renal = system: SN12C renal
# CCRF-CEM leukemia = system: CCRF-CEM leukemia
# 786-0 renal = system: 786-0 renal
# SF-295 CNS = system: SF-295 CNS
# M14 melanoma = system: M14 melanoma
# SF-539 CNS = system: SF-539 CNS
# A498 renal = system: A498 renal
smiles,measurement,setting,value
O=S1CCN(Cc2ccc(-c3ccc4ncnc(Nc5ccc(OCc6ccccc6)c(Cl)c5)c4c3)o2)CC1,GI50,OVCAR-8 ovarian,11.7 µM
same,TGI,OVCAR-8 ovarian,> 25 µM
same,GI50,RPMI-8226 leukemia,12.4 µM
same,TGI,RPMI-8226 leukemia,> 25 µM
same,GI50,BT-549 breast,9.62 µM
same,TGI,BT-549 breast,> 20.5 µM
same,GI50,SK-MEL-2 melanoma,7.46 µM
same,TGI,SK-MEL-2 melanoma,16.7 µM
same,GI50,SK-OV-3 ovarian,0.0917 µM
same,TGI,SK-OV-3 ovarian,> 25 µM
same,GI50,ACHN renal,0.656 µM
same,TGI,ACHN renal,> 25 µM
same,GI50,OVCAR-5 ovarian,12.1 µM
same,TGI,OVCAR-5 ovarian,> 25 µM
same,GI50,TK-10 renal,0.116 µM
same,TGI,TK-10 renal,> 25 µM
same,GI50,NCI-H522 lung,3.68 µM
same,TGI,NCI-H522 lung,> 25 µM
same,GI50,MDA-MB-435,8.95 µM
same,TGI,MDA-MB-435,> 25 µM
same,GI50,HCC-2998 colon,7.19 µM
same,TGI,HCC-2998 colon,23.4 µM
same,GI50,PC-3 prostate,11.8 µM
same,TGI,PC-3 prostate,> 25 µM
same,GI50,OVCAR-3 ovarian,8.08 µM
same,TGI,OVCAR-3 ovarian,> 25 µM
same,GI50,MDA-MB-231 breast,14.9 µM
same,TGI,MDA-MB-231 breast,> 25 µM
same,GI50,CAKI-1 renal,0.635 µM
same,TGI,CAKI-1 renal,> 25 µM
same,GI50,UACC-62 melanoma,10.7 µM
same,TGI,UACC-62 melanoma,> 23.4 µM
same,GI50,MCF7 breast,> 15.2 µM
same,TGI,MCF7 breast,> 25 µM
same,GI50,A549 NSCLC,8.02 µM
same,TGI,A549 NSCLC,> 25 µM
same,GI50,UACC-257 melanoma,8.55 µM
same,TGI,UACC-257 melanoma,> 25 µM
same,GI50,HL-60(TB) leukemia,10.6 µM
same,TGI,HL-60(TB) leukemia,> 20.7 µM
same,GI50,MOLT-4 leukemia,9.06 µM
same,TGI,MOLT-4 leukemia,> 25 µM
same,GI50,SK-MEL-28 melanoma,14 µM
same,TGI,SK-MEL-28 melanoma,> 25 µM
same,GI50,RXF 393 renal,> 15.3 µM
same,TGI,RXF 393 renal,> 25 µM
same,GI50,HS 578T breast,> 21.6 µM
same,TGI,HS 578T breast,> 25 µM
same,GI50,SW-620 colon,8.63 µM
same,TGI,SW-620 colon,> 25 µM
same,GI50,NCI-H23 lung,13.3 µM
same,TGI,NCI-H23 lung,> 25 µM
same,GI50,DU-145 prostate,7.52 µM
same,TGI,DU-145 prostate,> 25 µM
same,GI50,K-562 leukemia,10.1 µM
same,TGI,K-562 leukemia,> 25 µM
same,GI50,NCI-H460 lung,10.2 µM
same,TGI,NCI-H460 lung,> 25 µM
same,GI50,HOP-92 NSCLC,4.91 µM
same,TGI,HOP-92 NSCLC,> 21.2 µM
same,GI50,KM12 colon,9.22 µM
same,TGI,KM12 colon,> 25 µM
same,GI50,COLO 205 colon,11.7 µM
same,TGI,COLO 205 colon,> 25 µM
same,GI50,HOP-62 NSCLC,> 25 µM
same,TGI,HOP-62 NSCLC,> 25 µM
same,GI50,MALME-3M melanoma,10.1 µM
same,TGI,MALME-3M melanoma,> 25 µM
same,GI50,SNB-19 CNS,> 25 µM
same,TGI,SNB-19 CNS,> 25 µM
same,GI50,SF-268 CNS,> 22.3 µM
same,TGI,SF-268 CNS,> 25 µM
same,GI50,T-47D breast,5.72 µM
same,TGI,T-47D breast,> 25 µM
same,GI50,OVCAR-4 ovarian,13.5 µM
same,TGI,OVCAR-4 ovarian,> 25 µM
same,GI50,HT29 colon,6.9 µM
same,TGI,HT29 colon,> 18.8 µM
same,GI50,HCT-116 colon,11.3 µM
same,TGI,HCT-116 colon,> 25 µM
same,GI50,EKVX NSCLC,0.112 µM
same,TGI,EKVX NSCLC,> 19.9 µM
same,GI50,NCI/ADR-RES ovarian,8.08 µM
same,TGI,NCI/ADR-RES ovarian,> 25 µM
same,GI50,UO-31 renal,6.32 µM
same,TGI,UO-31 renal,> 25 µM
same,GI50,LOX IMVI melanoma,8.51 µM
same,TGI,LOX IMVI melanoma,> 16.9 µM
same,GI50,U251 CNS,14.9 µM
same,TGI,U251 CNS,> 25 µM
same,GI50,SR leukemia,7.57 µM
same,TGI,SR leukemia,> 25 µM
same,GI50,NCI-H226 lung,> 16.5 µM
same,TGI,NCI-H226 lung,> 25 µM
same,GI50,HCT-15 colon,7.78 µM
same,TGI,HCT-15 colon,> 25 µM
same,GI50,SNB-75 CNS,> 16.6 µM
same,TGI,SNB-75 CNS,> 25 µM
same,GI50,SK-MEL-5 melanoma,7.9 µM
same,TGI,SK-MEL-5 melanoma,> 15.7 µM
same,GI50,IGROV1 ovarian,0.561 µM
same,TGI,IGROV1 ovarian,> 25 µM
same,GI50,SN12C renal,14.8 µM
same,TGI,SN12C renal,> 25 µM
same,GI50,CCRF-CEM leukemia,9.07 µM
same,TGI,CCRF-CEM leukemia,> 25 µM
same,GI50,786-0 renal,10.7 µM
same,TGI,786-0 renal,> 25 µM
same,GI50,SF-295 CNS,9.76 µM
same,TGI,SF-295 CNS,> 25 µM
same,GI50,M14 melanoma,10 µM
same,TGI,M14 melanoma,> 25 µM
same,GI50,SF-539 CNS,> 15.3 µM
same,TGI,SF-539 CNS,> 25 µM
same,GI50,A498 renal,5.82 µM
same,TGI,A498 renal,24.3 µM
